Source: patent US20190046552A1, “COMPOSITIONS AND METHODS FOR THE TREATMENT OF HCV INFECTION” (priority 2015, published 2019)
Like-named read-outs stand apart in the source and are kept apart here.

Legend:
[1] = Part A (SAD): plasma PK of Formula (IIa) and its metabolites after a single oral dose of Formula (IIa), fed or fasted; type: in vivo, human; conditions: for Cmax / AUC(0-t) / Tmax / AUC(0-inf) / half-life: human, in vivo; for Cmax / AUC(0-t) / Tmax: po
Procedure: The study was a Phase 1, two-part, first-in-human study of single (Part A) and multiple (Part B) ascending doses (SAD and MAD) of Formula (IIa) at doses of 100-900 mg given as a monotherapy for up to 7 days. Subjects were enrolled at multiple sites in Australia and New Zealand. For both Parts A and B, the Safety Review Committee (SRC) determined whether dose escalation occurred after review of all safety data and any available PK/PD data. Part A was an open label, randomized SAD study consisting of four cohorts of two subjects each, with one subject randomized to be dosed in the fed state and the other in the fasted state, at doses of 100 mg to 800 mg Formula (IIa). All subjects were given a single dose of Formula (IIa) orally.
(§1) All plasma PK calculations were performed using actual time points calculated relative to the time of last drug administration.
(§2) PK analysis was conducted for all enrolled subjects that received any dose of Formula (IIa) with sufficient plasma sample data to assess PK parameters. […] Data analysis was performed using a validated version of WinNonlin® Enterprise (Version 5.2) software, and summary tables and figures were generated using a validated version of WinNonlin® Autopilot™ (Version 1.1.1) and other reporting tools, including SigmaPlot®.

[2] = Part B (MAD): plasma PK of Formula (IIa) and its metabolites after once-daily oral Formula (IIa) for 7 days, fasted; type: in vivo, human; conditions: fasted, Day 7, plasma; for Cmin: arithmetic mean (CV %); for Tmin: median (min, max)
Procedure: Part B was a blinded, randomized, placebo-controlled MAD study consisting of four cohorts of eight subjects randomized 6:2 to receive Formula (IIa) or placebo. […] To control for the possible effect of the IL28b genotype, the number of subjects with CC alleles was capped at three per cohort.
The starting dose was determined by the SRC based on review of all safety and any available PK/PD data from Part A. All subjects were dosed in the fasted state with Formula (IIa) daily, from Day 1 until […]. All subjects had nothing by mouth other than water for at least 10 hours prior to daily dosing and for 4 hours thereafter. In Part B, all subjects were administered the study medication orally with approximately 240 mL of water at the same time every day (+/−10 minutes).
A subset of blood samples shown in Table 3 above was used for the PK evaluation of plasma trough concentrations (Table 4). In addition, blood sample assessment of antiviral response was collected according to the following sampling schedule for Part B (Table 4).
as §1, §2

CO[C@H]1C(OP(=O)(OC[C@H]2O[C@@H](n3cnc4c(N)ncnc43)CC2O)SCOC(=O)OC(C)C)[C@@H](CO)O[C@H]1n1ccc(=O)[nH]c1=O (some centres unmarked) [Formula (IIa)]
Cmax ([1]; 200 mg, single oral 200 mg Formula (IIa), fasted, plasma, N=1): 0.577 ng/mL | AUC(0-t) ([1]; 200 mg, single oral 200 mg Formula (IIa), fasted, plasma, N=1, read-out: AUC0-24): 0.433 ng·h/mL | AUC(0-t) ([1]; 200 mg, single oral 200 mg Formula (IIa), fasted, plasma, N=1, read-out: AUC0-t): 0.289 ng·h/mL | Tmax ([1]; 200 mg, single oral 200 mg Formula (IIa), fasted, plasma, N=1, read-out: Tmax): 1 h | Cmax ([1]; 200 mg, single oral 200 mg Formula (IIa), fed, plasma, N=1): 0.261 ng/mL | AUC(0-t) ([1]; 200 mg, single oral 200 mg Formula (IIa), fed, plasma, N=1, read-out: AUC0-24): 0.131 ng·h/mL | AUC(0-t) ([1]; 200 mg, single oral 200 mg Formula (IIa), fed, plasma, N=1, read-out: AUC0-t): 0.0653 ng·h/mL | Tmax ([1]; 200 mg, single oral 200 mg Formula (IIa), fed, plasma, N=1, read-out: Tmax): 2 h | Cmax ([1]; 400 mg, single oral 400 mg Formula (IIa), fasted, plasma, N=1): 1.16 ng/mL | AUC(0-t) ([1]; 400 mg, single oral 400 mg Formula (IIa), fasted, plasma, N=1, read-out: AUC0-24): 1.37 ng·h/mL | AUC(0-t) ([1]; 400 mg, single oral 400 mg Formula (IIa), fasted, plasma, N=1, read-out: AUC0-t): 1.31 ng·h/mL | Tmax ([1]; 400 mg, single oral 400 mg Formula (IIa), fasted, plasma, N=1, read-out: Tmax): 2.5 h | Cmax ([1]; 400 mg, single oral 400 mg Formula (IIa), fed, plasma, N=1): 0.574 ng/mL | AUC(0-t) ([1]; 400 mg, single oral 400 mg Formula (IIa), fed, plasma, N=1, read-out: AUC0-24): 1.13 ng·h/mL | AUC(0-t) ([1]; 400 mg, single oral 400 mg Formula (IIa), fed, plasma, N=1, read-out: AUC0-t): 1.07 ng·h/mL | Tmax ([1]; 400 mg, single oral 400 mg Formula (IIa), fed, plasma, N=1, read-out: Tmax): 1.5 h | Cmax ([1]; 800 mg, single oral 800 mg Formula (IIa), fasted, plasma, N=1): 0.734 ng/mL | AUC(0-t) ([1]; 800 mg, single oral 800 mg Formula (IIa), fasted, plasma, N=1, read-out: AUC0-24): 0.809 ng·h/mL | AUC(0-t) ([1]; 800 mg, single oral 800 mg Formula (IIa), fasted, plasma, N=1, read-out: AUC0-t): 0.751 ng·h/mL | Tmax ([1]; 800 mg, single oral 800 mg Formula (IIa), fasted, plasma, N=1, read-out: Tmax): 1 h | Cmax ([1]; 800 mg, single oral 800 mg Formula (IIa), fed, plasma, N=1): 0.486 ng/mL | AUC(0-t) ([1]; 800 mg, single oral 800 mg Formula (IIa), fed, plasma, N=1, read-out: AUC0-24): 0.96 ng·h/mL | AUC(0-t) ([1]; 800 mg, single oral 800 mg Formula (IIa), fed, plasma, N=1, read-out: AUC0-t): 0.9 ng·h/mL | Tmax ([1]; 800 mg, single oral 800 mg Formula (IIa), fed, plasma, N=1, read-out: Tmax): 1.5 h | Tmax ([1]; single oral Formula (IIa), subjects dosed under fasted conditions, read-out: Individual Tmax range): 1 to 2.5 h | Tmax ([1]; single oral Formula (IIa), subjects dosed under fed conditions, read-out: Individual Tmax range): 1.5 to 2 h | AUC(0-inf) ([1]; single oral 400 mg Formula (IIa), fed, plasma, N=1): 1.43 ng·h/mL | half-life ([1]; single oral 400 mg Formula (IIa), fed, plasma, N=1, read-out: t1/2 (converted)): 1.16 h | AUC(0-inf) ([1]; single oral 800 mg Formula (IIa), fed, plasma, N=1): 1.39 ng·h/mL | half-life ([1]; single oral 800 mg Formula (IIa), fed, plasma, N=1, read-out: t1/2 (converted)): 1.42 h | half-life ([1]; two fed subjects (400 mg and 800 mg dose cohorts), read-out: half-life (terminal phase), range): 1.16 to 1.42 h | measurable Formula (IIa) concentrations in plasma ([1]; single oral 100 mg Formula (IIa), fasting and fed): no measurable Formula (IIa) concentrations | AUC0-t in the fasted subject higher than the fed subject ([1]; single oral 200 mg Formula (IIa)): 4 fold | peak plasma concentrations in the fasted subjects, times higher compared to the fed subjects ([1]; single oral 400 mg Formula (IIa)): 2.0 times | peak plasma concentrations in the fasted subjects, times higher compared to the fed subjects ([1]; single oral 800 mg Formula (IIa)): 1.5 times | measurable concentrations of Formula (IIa) in plasma ([1]; single oral dose levels of 100 mg and 200 mg): did not produce measurable concentrations | Cmin ([2]; 200 mg Formula (IIa) QD oral): 0.00 (NC) ng/ml | Tmin ([2]; 200 mg Formula (IIa) QD oral): 0.00 h | Cmin ([2]; 400 mg Formula (IIa) QD oral): 0.00 (NC)^ ng/ml | Tmin ([2]; 400 mg Formula (IIa) QD oral): 0.00 h | Cmin ([2]; 900 mg Formula (IIa) QD oral): 0.00 (NC) ^ ng/ml
